{
  "source": "patent US8148431B2",
  "about": "“Osteogenesis promoter containing β-cryptoxanthin as the active ingredient” (Kemin Health, L.C., priority 2002, dated 2012)",
  "key": {"[1]": {"system": "diaphysis tissue of the femur (cortical bone)", "assay": "Bone alkaline phosphatase activity in cultured femoral diaphysis tissue pieces", "type": "cell-based, Wistar male rats", "settings": "for Bone alkaline phosphatase activity: diaphysis tissue, mean ± SE", "description": "(§1) The femurs were extracted from rats (Wistar male rats; 4 to 5 weeks old) (purchased from Japan SLC Co., Ltd. and fed with solid Oriental yeast (MF)) under anesthesia with ether under a germfree condition. The femurs were each washed with 0.25 M sucrose solution, and then divided into the diaphysis (cortical bone) and metaphysis (cancellous bone). The bone tissue pieces were cultured in a culture medium (Dulbecco's modified culture medium containing 5% of glucose; serum-free medium) containing. β-cryptoxanthin, etc. at […] in an incubator filled with 5% CO2-95% air for 48 hours. β-cryptoxanthin used was “β-cryptoxanthin” of Extrasynthase Co., cycloheximide used was “Cycloheximide” of Sigma Co. Ltd., β-carotene was “β-carotene” of Sigma ? , xanthine was “Xanthine” of Sigma Co, Ltd., parathormone was “Parathormone” of Sigma Co. Ltd. and prostaglandin E2 was “Prostaglandin E2” of Sigma Co. Ltd. In the control, only the culture medium was used without β-cryptoxanthin or the like.\n(§2) The expression level of alkaline phosphatase, which is the most important enzyme for the acceleration of the calcification of bones, was examined. The tissue pieces cultured in the incubator were washed in 0.25 M sucrose solution, then pulverized in 3 ml of 65 mM barbital buffer (pH 7-4) and treated with ultrasonic waves. The resultant liquid was centrifuged. The supernatant, as the enzyme solution, was determined by a method of Walter ad Schutt in Method of Enzymatic Analysis, Vol. 1-2, p. 856, Academic Press, New York, 1965). Namely, this method was carried out as follows: p-nitrophenylphosphoric acid was used as the substrate. 0.05 ml of the enzyme solution was added to 2 ml of diethanolamine buffer (pH 9.8). After the incubation at 37° C. for 30 minutes, 10 ml of 0.05 N NaOH was added to the mixture. The absorbance (405 nm) was determined with a spectrophotometer to determine bone alkaline phosphatase activity of a bone remedy or a compound known to be effective for the bones.\n(§3) The bone component-increasing effect of β-cryptoxanthin was examined. The diaphysis and metaphysis tissue of the femur was cultured in the above-described culture medium containing β-cryptoxanthin ([…]) for 48 hours. Calcium level in the bone tissue, alkaline phosphatase activity (enzyme for accelerating the bone calcification) and the amount of deoxyribonucleic acid (DNA; index of number of cells in the bone tissue) were determined by the same methods as in Example 1. In each test group, the determination vas conducted 6 to 8 times and the results were represented by the average value and the standard error. The significant difference was determined by Student's t-test. The result was compared with that of the control. When P value was not higher than 0.01 (**) or not higher than 0.05 (*), the results were statistically significant."}, "[2]": {"system": "metaphysis tissue of the femur (cancellous bone)", "assay": "Bone alkaline phosphatase activity in cultured femoral metaphysis tissue pieces", "type": "cell-based, Wistar male rats", "settings": "for Bone alkaline phosphatase activity: metaphysis tissue, mean ± SE", "description": "as §1, §2, §3"}, "[3]": {"system": "metaphysis tissue of the femur (cancellous bone)", "assay": "Bone DNA level in cultured femoral metaphysis tissue pieces", "type": "cell-based, Wistar male rats", "settings": "for Bone DNA level: metaphysis tissue, mean ± SE", "description": "as §1\nDNA level was determined as an index of the number of cells in the bone tissue. After the culture in an incubator, the tissue pieces were washed with 0.25 M sucrose solution and then the wet weight of them was determined. They were pulverized in 4 ml of 0.1 N NaOH. After the osmosis at 4° C. for 24 hours, the liquid mixture was centrifuged. The supernatant was taken as the sample and determined by a method of Ceriotti et al. (J. Biol. Chem., 241; 34-77, 1951). Namely, 1 ml of concentrated hydrochloric acid and 1 ml of 0.04% indole solution were added to 2 ml of the sample and then the resultant mixture was heated to 100° C. in boiling water. After quenching followed by the extraction with 4 ml of chloroform, the chloroform layer was taken to determine bone DNA level with a spectrophotometer (490 nm).\nas §3"}, "[4]": {"system": "rats, femoral metaphysis tissue", "assay": "Oral administration to rats: bone calcium level in metaphysis tissue", "type": "in vivo, Wistar male rats", "settings": "for Bone calcium level: metaphysis tissue", "description": "Bone calcium level in the bone tissue was determined. After the culture in the incubator, the tissue pieces were washed with 0.25 M sucrose solution and dried and then the bone was weighed. Then concentrated nitric acid was added to the tissue pieces. After the incineration at 120° C. for 12 hours, the bone calcium level was determined with an atomic absorption photometer (“Perkin-Elmer 303” of Perkin-Elmer Co.).\nA solution of β-cryptoxanthin in corn oil having one of three kinds of concentration (10, 25 and 50 μg/ml corn oil) was orally administered to rats (Wistar male rats; 4 to 5 weeks old) in an amount/100 g body weight with a probe once a day for 7 days. The rats were sacrificed 24 hours after the final administration. The femurs were excised. The muscles, etc. were taken out and each femur was divided into diaphysis and metaphysis to determine the bone components.\nTests were conducted to examine whether the bone components are increased by the oral administration of β-cryptoxanthin to rats or not. β-cryptoxanthin was administered for 7 days (10, 25 or 50 μg/100 g body weight/day) and then calcium level in the bone tissue, determination of alkaline phosphatase activity (enzyme for the acceleration of the calcification of bones) and the amount of deoxyribonucleic acid (DNA: index of the number of the cells in the bone tissue) were determined by the same methods as those in Example 1. In each test group, the determination was conducted 6 times and the results were represented by the average value and the standard error. The significant difference was determined by Student's t-test. The result was compared with that of the control. When P value was not higher than 0.01 (*) as compared with the control, the results were statistically significant."}, "[5]": {"settings": "10^−7 to 10^−5 M, 48 h culture, vs control"}, "[6]": {"settings": "Table 2 (protein synthesis inhibitor experiment), 10^−6 M (each agent), n=6"}, "[7]": {"settings": "β-cryptoxanthin 10^−6 M with cycloheximide"}},
  "note": "Marks after values point to notes of the source that are not given here.",
  "data": [
    {"compound": "CC1=C(/C=C/C(C)=C/C=C/C(C)=C/C=C/C=C(C)/C=C/C=C(C)/C=C/C2=C(C)C[C@@H](O)CC2(C)C)C(C)(C)CCC1", "note": "[β-cryptoxanthin]", "values": [
      {"measurement": "Effect on alkaline phosphatase activity in the diaphysis (in words)", "setting": "[1]; [5]", "result": "significantly increased"},
      {"measurement": "Bone alkaline phosphatase activity", "setting": "[1]; [6]", "result": "691.5 ± 11.2* nmol/min/mg protein"},
      {"measurement": "Bone alkaline phosphatase activity", "setting": "[1]; 10^−5 M, 48 h culture", "result": "644.6 ± 15.2** nmol/min/mg protein"},
      {"measurement": "Bone alkaline phosphatase activity", "setting": "[1]; 10^−6 M, 48 h culture", "result": "684.0 ± 17.7** nmol/min/mg protein"},
      {"measurement": "Bone alkaline phosphatase activity", "setting": "[1]; 10^−7 M, 48 h culture", "result": "604.2 ± 9.6* nmol/min/mg protein"},
      {"measurement": "Bone alkaline phosphatase activity", "setting": "[1]; 10^−8 M, 48 h culture", "result": "568.5 ± 9.5", "unit": "nmol/min/mg protein"},
      {"measurement": "Bone alkaline phosphatase activity in diaphysis tissue increased by β-cryptoxanthin: change in the presence of cycloheximide (in words)", "setting": "[1]; [7]", "result": "significantly lowered"},
      {"measurement": "Effect on the enzymatic (alkaline phosphatase) activity in the metaphysis (in words)", "setting": "[2]; 10^−7 to 10^−4 M (so in the source), 48 h culture, vs control", "result": "increase"},
      {"measurement": "Bone alkaline phosphatase activity", "setting": "[2]; [6]", "result": "1168.2 ± 30.1* nmol/min/mg protein"},
      {"measurement": "Bone alkaline phosphatase activity", "setting": "[2]; 10^−5 M, 48 h culture", "result": "1229.5 ± 40.9** nmol/min/mg protein"},
      {"measurement": "Bone alkaline phosphatase activity", "setting": "[2]; 10^−6 M, 48 h culture", "result": "1150.9 ± 26.8** nmol/min/mg protein"},
      {"measurement": "Bone alkaline phosphatase activity", "setting": "[2]; 10^−7 M, 48 h culture", "result": "945.2 ± 5.4** nmol/min/mg protein"},
      {"measurement": "Bone alkaline phosphatase activity", "setting": "[2]; 10^−8 M, 48 h culture", "result": "918.4 ± 4.3", "unit": "nmol/min/mg protein"},
      {"measurement": "Bone alkaline phosphatase activity in metaphysis tissue increased by β-cryptoxanthin: change in the presence of cycloheximide (in words)", "setting": "[2]; [7]", "result": "significantly lowered"},
      {"measurement": "Effect on DNA level in the metaphysis tissue (in words)", "setting": "[3]; [5]", "result": "significantly increased"},
      {"measurement": "Bone DNA level", "setting": "[3]; [6]", "result": "5.401 ± 0.188* mg/g bone wet weight"},
      {"measurement": "Bone DNA level", "setting": "[3]; 10^−5 M, 48 h culture", "result": "5.584 ± 0.530** mg/g bone wet weight"},
      {"measurement": "Bone DNA level", "setting": "[3]; 10^−6 M, 48 h culture", "result": "5.359 ± 0.207** mg/g bone wet weight"},
      {"measurement": "Bone DNA level", "setting": "[3]; 10^−7 M, 48 h culture", "result": "4.170 ± 0.057** mg/g bone wet weight"},
      {"measurement": "Bone DNA level", "setting": "[3]; 10^−8 M, 48 h culture", "result": "3.276 ± 0.207", "unit": "mg/g bone wet weight"},
      {"measurement": "Bone DNA level in metaphysis tissue increased by β-cryptoxanthin: change in the presence of cycloheximide (in words)", "setting": "[3]; [7]", "result": "significantly lowered"},
      {"measurement": "Effect on calcium level in the metaphysis tissue after oral administration (in words)", "setting": "[4]; 10, 25 or 50 μg/100 g body weight/day, 7 days", "result": "significantly increased"},
      {"measurement": "Bone calcium level", "setting": "[4]; oral 10 μg/100 g body weight/day for 7 days", "result": "201.5 ± 5.60* mg/g dry weight"},
      {"measurement": "Bone calcium level", "setting": "[4]; oral 25 μg/100 g body weight/day for 7 days", "result": "200.3 ± 3.90* mg/g dry weight"},
      {"measurement": "Bone calcium level", "setting": "[4]; oral 50 μg/100 g body weight/day for 7 days", "result": "205.9 ± 4.10* mg/g dry weight"}
    ]}
  ]
}
